One experiment concerns Klebsiella pneumoniae. The experiment is described as follows: Inhibition of FtsZ in Klebsiella pneumoniae ATCC 9621 assessed as growth inhibition at 100 ug per disc after 18 to 24 hrs by paper disc agar diffusion assay. (In general: In agar diffusion tests the substance spreads into inoculated agar from a disc or well.)
Experiment [1] relates to Bacillus subtilis subsp. spizizenii ATCC 6633 = JCM 2499. The experiment is described as follows: Inhibition of FtsZ in Bacillus subtilis ATCC 6633 assessed as growth inhibition at 100 ug per disc after 18 to 24 hrs by paper disc agar diffusion assay.
Experiment [2] has as its system Escherichia coli ATCC 25922. The experiment is described as follows: Inhibition of FtsZ in Escherichia coli ATCC 25922 assessed as growth inhibition at 100 ug per disc after 18 to 24 hrs by paper disc agar diffusion assay.
For a further experiment, the system named is Aspergillus niger. The experiment is described as follows: Antifungal activity against Aspergillus niger ATCC 16404 at 100 ug per disc after 3 to 5 days by paper disc agar diffusion assay. It is filed as functional.
The target of experiment [3] is T1, Cell division protein FtsZ (Staphylococcus aureus) (UniProt P0A031).
T1 sequence (whole entry): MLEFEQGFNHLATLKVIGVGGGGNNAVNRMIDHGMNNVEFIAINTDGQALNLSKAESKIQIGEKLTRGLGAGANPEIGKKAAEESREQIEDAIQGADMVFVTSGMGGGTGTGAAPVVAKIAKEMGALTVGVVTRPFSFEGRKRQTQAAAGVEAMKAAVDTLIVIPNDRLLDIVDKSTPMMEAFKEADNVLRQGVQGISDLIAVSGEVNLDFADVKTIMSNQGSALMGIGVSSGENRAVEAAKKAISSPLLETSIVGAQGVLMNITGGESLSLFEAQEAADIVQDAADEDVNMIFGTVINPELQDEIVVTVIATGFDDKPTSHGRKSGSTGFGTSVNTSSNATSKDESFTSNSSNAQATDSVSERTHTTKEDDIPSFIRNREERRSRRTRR
The experiment is described as follows: Inhibition of FtsZ in Staphylococcus aureus ATCC 6538P assessed as growth inhibition at 100 ug per disc after 18 to 24 hrs by paper disc agar diffusion assay.

A further experiment relates to Candida albicans. Kind of experiment: Antifungal activity against Candida albicans ATCC 10231 at 100 ug per disc after 3 to 5 days by paper disc agar diffusion assay. It is filed as functional.
The subject of experiment [4] is Mycolicibacterium smegmatis. The experiment is described as follows: Inhibition of FtsZ in Mycobacterium smegmatis ATCC 607 assessed as growth inhibition at 100 ug per disc after 18 to 24 hrs by paper disc agar diffusion assay.
The test system of a further experiment is Pseudomonas aeruginosa. The experiment is described as follows: Inhibition of FtsZ in Pseudomonas aeruginosa ATCC 9027 assessed as growth inhibition at 100 ug per disc after 18 to 24 hrs by paper disc agar diffusion assay.
In the next experiment the test system is Klebsiella aerogenes. The experiment is described as follows: Inhibition of FtsZ in Klebsiella aerogenes ATCC 9621 assessed as growth inhibition at 100 ug per disc after 18 to 24 hrs by paper disc agar diffusion assay.
Experiment [5] relates to Mycolicibacterium smegmatis. Kind of experiment: Inhibition of FtsZ in Mycobacterium smegmatis ATCC 607 assessed as ratio of diameter of zone inhibition of test compound to diameter of zone inhibition of streptomycin at 100 ug per disc after 18 to 24 hrs by paper disc agar diffusion assay.
For experiment [6], the system named is Bacillus subtilis subsp. spizizenii ATCC 6633 = JCM 2499. Kind of experiment: Inhibition of FtsZ in Bacillus subtilis ATCC 6633 assessed as ratio of diameter of zone inhibition of test compound to diameter of zone inhibition of tetracycline at 100 ug per disc after 18 to 24 hrs by paper disc agar diffusion assay.

Structures are written as SMILES. The source made the active and inactive calls. No cut-off for these calls is given here.

`NC(=O)c1c(F)ccc(OCCCOC(=O)c2ccccc2)c1F`: the inhibition result (in the experiment with Klebsiella pneumoniae; in experiment [1]; in experiment [2]; in [3]; in experiment [4]; in the experiment on Pseudomonas aeruginosa) was “inactive” each time. The result with Aspergillus niger and with Candida albicans was inactive.
Regarding `COc1ccc(OCCOC(=O)COc2ccc(F)c(C(N)=O)c2F)cc1`, the inhibition entry (with Klebsiella aerogenes; in [2]; in experiment [3]; in the experiment on Pseudomonas aeruginosa) was “inactive” in each case. Further, the Ratio is 0.37 in experiment [5] and 0.51 in experiment [6]. Also, the outcome in the experiment on Aspergillus niger and in the experiment with Candida albicans was inactive.
With `NC(=O)c1c(F)ccc(OCCOC(=O)c2ccccc2)c1F`, the inhibition entry (in the experiment on Klebsiella pneumoniae; in experiment [1]; in experiment [2]; in experiment [3]; in experiment [4]; in the experiment with Pseudomonas aeruginosa) was “inactive” throughout. Further, the result with Aspergillus niger and in the experiment with Candida albicans was inactive.

The values are drawn from ChEMBL document CHEMBL4007481, “Synthesis and antibacterial activity of 3-benzylamide derivatives as FtsZ inhibitors” (Bioorg Med Chem Lett, 2017).
